{"source": "paper PMC11714206", "about": "“Massively Parallel Screening of Toll/Interleukin‐1 Receptor (TIR)‐Derived Peptides Reveals Multiple Toll‐Like Receptors (TLRs)‐Targeting Immunomodulatory Peptides” (Advanced Science, 2024)", "target": "T1, MAL^TIR (Homo sapiens, UniProt P58753)", "T1 construct": "MAL (residues 79–221); 6xHis; made in house; host or cells: E. coli BL21 (DE3)", "T1 sequence (P58753 79-221)": "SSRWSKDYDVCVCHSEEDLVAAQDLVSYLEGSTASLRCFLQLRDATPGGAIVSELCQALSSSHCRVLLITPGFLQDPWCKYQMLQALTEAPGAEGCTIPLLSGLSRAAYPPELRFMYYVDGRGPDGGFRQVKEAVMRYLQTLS", "experiment": "T‐Surf phage library (P8 and P3) selection against MAL^TIR, four rounds, NGS read counts", "assay_type": "binding", "settings": "for P3_MAL Rank (after) / P3_MAL Rank (before): P3 library; for P8_MAL Rank (after) / P8_MAL Rank (before): P8 library; for Population: 4th round of selection against MAL TIR, share of NGS reads", "summary_of_the_method": "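Read counts come from NGS of phage pools after the fourth selection round, barcoded by 20-cycle PCR and filtered for quality ≥30. Each round: phage incubated 1 h at RT on immobilised TIR protein (5 µg mL^−1, BSA-blocked), washed, HCl-eluted and amplified in E. coli TG1.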", "key": {"[1]": {"settings": "selection against MAL, rank by count after grouping"}, "[2]": {"settings": "selection against MAL, rank by count before grouping"}, "[3]": {"settings": "P8_MAL: rank by count after grouping"}, "[4]": {"settings": "P8_MAL: rank by count before grouping"}, "[5]": {"settings": "4R selection against MAL, rank after grouping"}, "[6]": {"settings": "4R selection against MAL, rank before grouping"}, "[7]": {"settings": "selection against MAL TIR, rank by count after grouping"}, "[8]": {"settings": "selection against MAL TIR, rank by count before grouping"}, "[9]": {"settings": "P3_MAL pool: P3 T-Surf phage library"}, "[10]": {"settings": "P8_MAL pool: P8 T-Surf phage library"}, "[11]": {"settings": "P3_MAL: rank by count after grouping"}, "[12]": {"settings": "P3_MAL: rank by count before grouping"}, "[13]": {"settings": "selection against MAL, rank after grouping"}, "[14]": {"settings": "selection against MAL, rank before grouping"}}, "note": "Values joined by “and” are separate entries in the source; they are usually repeats but may differ in a detail not shown here. Equal entries are not always repeated.", "data": [{"sequence": "NELVHVWSSKAHSPVG", "values": [{"measurement": "P3_MAL Rank (after)", "setting": "[1]", "value": 731}, {"measurement": "P3_MAL Rank (before)", "setting": "[2]", "value": 3294}]}, {"sequence": "PFFWEHLRHLLRSHTL", "values": [{"measurement": "Rank (after)", "setting": "[3]", "value": 480}, {"measurement": "Rank (before)", "setting": "[4]", "value": 2325}]}, {"sequence": "YAFTGHFHCCKLQRGV", "values": [{"measurement": "P3_MAL Rank (after)", "setting": "[5]", "value": 666}, {"measurement": "P3_MAL Rank (before)", "setting": "[6]", "value": 1358}]}, {"sequence": "RYIMPHPQVLSQKKQQ", "values": [{"measurement": "P3_MAL Rank (after)", "setting": "[1]", "value": 725}, {"measurement": "P3_MAL Rank (before)", "setting": "[2]", "value": 2329}]}, {"sequence": "RGFLSKLSQHILKREK", "values": [{"measurement": "P3_MAL Rank (after)", "setting": "[7]", "value": 283}, {"measurement": "P3_MAL Rank (before)", "setting": "[8]", "value": 894}]}, {"sequence": "GCYERLVSLILRDTKV", "values": [{"measurement": "Rank (after)", "setting": "[3]", "value": 121}, {"measurement": "Rank (before)", "setting": "[4]", "value": 1571}]}, {"sequence": "WFFERLVKLILRDTKV", "values": [{"measurement": "P8_MAL Rank (after)", "setting": "[1]", "value": 712}, {"measurement": "P8_MAL Rank (before)", "setting": "[2]", "value": 1114}]}, {"sequence": "RNLVAYQFQALPNKGI", "values": [{"measurement": "P8_MAL Rank (after)", "setting": "[5]", "value": 658}, {"measurement": "P8_MAL Rank (before)", "setting": "[6]", "value": 2245}]}, {"sequence": "KDPDNYKFAIHERDFP", "values": [{"measurement": "P3_MAL Rank (after)", "setting": "[7]", "value": 207}, {"measurement": "P3_MAL Rank (before)", "setting": "[8]", "value": 3542}]}, {"sequence": "FAFTGHLHRYLVQRGV", "values": [{"measurement": "Population", "setting": "[9]", "value": 0.00338, "unit": "%"}]}, {"sequence": "WLYERLVSLILRDTKV", "values": [{"measurement": "Population", "setting": "[10]", "value": "0.00402% and 0.00371%"}]}, {"sequence": "WFYERLVSLIMRATKV", "values": [{"measurement": "Rank (after)", "setting": "[3]", "value": 117}, {"measurement": "Rank (before)", "setting": "[4]", "value": 1222}]}, {"sequence": "LFCWESLKQLLRSDCR", "values": [{"measurement": "Rank (after)", "setting": "[3]", "value": 169}, {"measurement": "Rank (before)", "setting": "[4]", "value": 2151}]}, {"sequence": "TRFCDRRCLTVAGSSA", "values": [{"measurement": "Rank (after)", "setting": "[11]", "value": 409}, {"measurement": "Rank (before)", "setting": "[12]", "value": 3235}]}, {"sequence": "VRHSFAGYRYDALNRL", "values": [{"measurement": "P3_MAL Rank (after)", "setting": "[7]", "value": 197}, {"measurement": "P3_MAL Rank (before)", "setting": "[8]", "value": 1698}]}, {"sequence": "KNLFNELVRKNLRTFM", "values": [{"measurement": "Rank (after)", "setting": "[11]", "value": 458}, {"measurement": "Rank (before)", "setting": "[12]", "value": 3753}]}, {"sequence": "RLLNGKKRCISFIAG", "values": [{"measurement": "P3_MAL Rank (after)", "setting": "[7]", "value": 261}, {"measurement": "P3_MAL Rank (before)", "setting": "[8]", "value": 2475}]}, {"sequence": "LKVKLASGAGKSGQT", "values": [{"measurement": "P3_MAL Rank (after)", "setting": "[5]", "value": 619}, {"measurement": "P3_MAL Rank (before)", "setting": "[6]", "value": 2301}]}, {"sequence": "ESILNQLRHHLQAKDH", "values": [{"measurement": "Rank (after)", "setting": "[11]", "value": 170}, {"measurement": "Rank (before)", "setting": "[12]", "value": 544}]}, {"sequence": "DPQDLQWFYERLVSLI", "values": [{"measurement": "Rank (after)", "setting": "[3]", "value": 447}, {"measurement": "Rank (before)", "setting": "[4]", "value": 1990}]}, {"sequence": "ALFWAQLKCVMGNPAM", "values": [{"measurement": "P8_MAL Rank (after)", "setting": "[1]", "value": 705}, {"measurement": "P8_MAL Rank (before)", "setting": "[2]", "value": 1932}]}, {"sequence": "RGFLSHLHHALRLNKIEAF", "values": [{"measurement": "P3_MAL Rank (after)", "setting": "[1]", "value": 747}, {"measurement": "P3_MAL Rank (before)", "setting": "[2]", "value": 2390}]}, {"sequence": "SFLYTFLITLTHPTTF", "values": [{"measurement": "P8_MAL Rank (after)", "setting": "[7]", "value": 266}, {"measurement": "P8_MAL Rank (before)", "setting": "[8]", "value": 1447}]}, {"sequence": "RAFVAHLYEALKKRAN", "values": [{"measurement": "P3_MAL Rank (after)", "setting": "[13]", "value": 547}, {"measurement": "P3_MAL Rank (before)", "setting": "[14]", "value": 2451}]}, {"sequence": "YLKWGYTRCWDRLRFA", "values": [{"measurement": "Rank (after)", "setting": "[11]", "value": 478}, {"measurement": "Rank (before)", "setting": "[12]", "value": 1518}]}, {"sequence": "SSLREVLWRLLELSKK", "values": [{"measurement": "Rank (after)", "setting": "[11]", "value": 178}, {"measurement": "Rank (before)", "setting": "[12]", "value": 3204}]}, {"sequence": "SPRKNLVSNLIEEFTR", "values": [{"measurement": "P3_MAL Rank (after)", "setting": "[7]", "value": 252}, {"measurement": "P3_MAL Rank (before)", "setting": "[8]", "value": 3108}]}, {"sequence": "VRHNFIGYLRDALQHR", "values": [{"measurement": "Rank (after)", "setting": "[11]", "value": 94}, {"measurement": "Rank (before)", "setting": "[12]", "value": 94}]}, {"sequence": "YFLHFLLFSRPETEYI", "values": [{"measurement": "Rank (after)", "setting": "[11]", "value": 386}, {"measurement": "Rank (before)", "setting": "[12]", "value": 1336}]}, {"sequence": "RGVLSRLRHHLQAKDH", "values": [{"measurement": "P3_MAL Rank (after)", "setting": "[13]", "value": 551}, {"measurement": "P3_MAL Rank (before)", "setting": "[14]", "value": 2427}]}, {"sequence": "WFYGRLVSLILRDTKV", "values": [{"measurement": "Population", "setting": "[10]", "value": 0.0034, "unit": "%"}]}, {"sequence": "RGFLNQLRQHLHAKDH", "values": [{"measurement": "P3_MAL Rank (after)", "setting": "[13]", "value": 548}, {"measurement": "P3_MAL Rank (before)", "setting": "[14]", "value": 2403}]}, {"sequence": "AFLYTFLKNLTHTPTF", "values": [{"measurement": "Rank (after)", "setting": "[3]", "value": 410}, {"measurement": "Rank (before)", "setting": "[4]", "value": 1876}]}, {"sequence": "RNSVAYLFQALADKGI", "values": [{"measurement": "P8_MAL Rank (after)", "setting": "[7]", "value": 270}, {"measurement": "P8_MAL Rank (before)", "setting": "[8]", "value": 2247}]}, {"sequence": "LFFWESLKQLLRAMA", "values": [{"measurement": "Rank (after)", "setting": "[3]", "value": 473}, {"measurement": "Rank (before)", "setting": "[4]", "value": 2095}]}, {"sequence": "LFFWESLKQRLRSDVR", "values": [{"measurement": "P8_MAL Rank (after)", "setting": "[7]", "value": 193}, {"measurement": "P8_MAL Rank (before)", "setting": "[8]", "value": 2118}]}, {"sequence": "NQWRNTLTAAANLSGW", "values": [{"measurement": "Population", "setting": "[9]", "value": 0.00376, "unit": "%"}]}, {"sequence": "AFFWAQLNSVLGNTTM", "values": [{"measurement": "P8_MAL Rank (after)", "setting": "[1]", "value": 710}, {"measurement": "P8_MAL Rank (before)", "setting": "[2]", "value": 1608}]}, {"sequence": "AFLYTFLINRTHPTNF", "values": [{"measurement": "Population", "setting": "[10]", "value": 0.0034, "unit": "%"}]}, {"sequence": "YFWHALKNALAEHEKR", "values": [{"measurement": "P3_MAL Rank (after)", "setting": "[5]", "value": 674}, {"measurement": "P3_MAL Rank (before)", "setting": "[6]", "value": 1334}]}, {"sequence": "HLLKIVLEKFASHRSS", "values": [{"measurement": "P8_MAL Rank (after)", "setting": "[5]", "value": 614}, {"measurement": "P8_MAL Rank (before)", "setting": "[6]", "value": 2335}]}, {"sequence": "KEVEGWRQALEKAGKL", "values": [{"measurement": "Rank (after)", "setting": "[11]", "value": 118}, {"measurement": "Rank (before)", "setting": "[12]", "value": 386}]}, {"sequence": "PEKDTVRVNVIIHNIV", "values": [{"measurement": "Rank (after)", "setting": "[11]", "value": 470}, {"measurement": "Rank (before)", "setting": "[12]", "value": 2642}]}]}
